Active and inactive are the calls of the source. The rule behind the calls is not given here.
What was measured:
Nav1.5 = Nav1.5 (Homo sapiens, UniProt Q14524); assay: Inhibition of human Nav1.5 expressed in CHO cells at 10 uM incubated for 3 to 5 mins by QPatch clamp assay; assay type: cell-based; conditions: CHO cells expressing human Nav1.5
Rattus norvegicus [1] = assay: Time at which plasma concentration stays above in vitro IC70 for BTK autophosphorylation at Y223 in rat whole blood in Lewis rat collagen-induced arthritis model at 0.125 to 2 mg/kg, po bid measured during 12 hrs dosing
BLK = BLK (Homo sapiens, UniProt P51451); assay: Inhibition of recombinant human full length His-tagged BLK expressed in baculovirus at 1 uM by Z'-LYTE assay
Salmonella typhimurium [2] = assay: Genotoxicity in Salmonella typhimurium TA100 after 48 to 72 hrs in absence of liver S9 fraction by Ames test; assay type: toxicity; conditions: salmonella enterica subsp. enterica serovar typhimurium
TEC = molecular target: T1, TEC (Homo sapiens, UniProt P42680); assay: Inhibition of recombinant human cytoplasmic full length His-tagged TEC expressed in baculovirus at 1 uM by Z'-LYTE assay
T1 sequence (P42680 whole entry): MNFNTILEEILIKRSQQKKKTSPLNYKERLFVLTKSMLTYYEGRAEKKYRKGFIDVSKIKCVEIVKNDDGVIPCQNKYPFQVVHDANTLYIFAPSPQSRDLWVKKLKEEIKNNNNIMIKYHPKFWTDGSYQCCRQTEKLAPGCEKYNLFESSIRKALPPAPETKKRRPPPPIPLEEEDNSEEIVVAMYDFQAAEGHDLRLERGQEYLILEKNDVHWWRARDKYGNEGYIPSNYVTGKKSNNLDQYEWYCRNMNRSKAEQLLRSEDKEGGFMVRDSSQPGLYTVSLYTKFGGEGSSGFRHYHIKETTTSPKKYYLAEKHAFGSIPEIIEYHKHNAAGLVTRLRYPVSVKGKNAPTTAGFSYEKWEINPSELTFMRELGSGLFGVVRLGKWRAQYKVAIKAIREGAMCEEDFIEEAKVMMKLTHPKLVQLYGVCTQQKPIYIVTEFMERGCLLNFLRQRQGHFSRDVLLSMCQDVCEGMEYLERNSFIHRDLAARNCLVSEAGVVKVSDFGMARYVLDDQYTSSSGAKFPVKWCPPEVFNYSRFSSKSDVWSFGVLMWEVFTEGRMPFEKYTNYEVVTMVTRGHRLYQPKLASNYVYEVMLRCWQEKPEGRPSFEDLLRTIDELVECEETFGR

Rattus norvegicus [3] = assay: Time at which plasma concentration stays above in vitro IC90 for BTK autophosphorylation at Y223 in rat whole blood in Lewis rat collagen-induced arthritis model at 1 to 16 mg/kg, po qd measured during 24 hrs dosing
Rattus norvegicus [4] = assay: Time at which plasma concentration stays above in vitro IC70 for BTK autophosphorylation at Y223 in rat whole blood in Lewis rat collagen-induced arthritis model at 1 mg/kg, po bid measured during 24 hrs dosing
Salmonella typhimurium [5] = assay: Genotoxicity in Salmonella typhimurium TA97a after 48 to 72 hrs in absence of liver S9 fraction by Ames test; assay type: toxicity; conditions: salmonella enterica subsp. enterica serovar typhimurium
Rattus norvegicus [6] = assay: Antiinflammatory activity in Lewis rat collagen-induced arthritis model assessed as reduction in ankle pannus at 0.06 to 16 mg/kg, po administered qd for 16 days; assay type: functional, organism-based
Rattus norvegicus [7] = assay: Time at which plasma concentration stays above in vitro IC70 for BTK autophosphorylation at Y223 in rat whole blood in Lewis rat collagen-induced arthritis model at 1 to 16 mg/kg, po qd measured during 24 hrs dosing
Rattus norvegicus [8] = assay: Antiinflammatory activity in Lewis rat collagen-induced arthritis model assessed as reduction in ankle diameter AUC at 4 mg/kg, po administered qd for 16 days relative to control; assay type: functional; conditions: 384 h
Rattus norvegicus [9] = assay: Antiinflammatory activity in Lewis rat collagen-induced arthritis model assessed as reduction in ankle diameter AUC at 0.25 mg/kg, po administered qd for 16 days relative to control; assay type: functional; conditions: 384 h
Rattus norvegicus [10] = assay: Antiinflammatory activity in Lewis rat collagen-induced arthritis model assessed as reduction in ankle diameter AUC at 1 mg/kg, po administered qd for 16 days relative to control; assay type: functional; conditions: 384 h
Cytochrome P450 2C9 = Cytochrome P450 2C9 (Homo sapiens, UniProt P11712); assay: Inhibition of CYP2C9 (unknown origin); assay type: ADME
PBL = assay: Genotoxicity in human PBL assessed as induction of micronuclei at 500 ug/ml in presence of rat liver S9 fraction by cytochalasin B-block method; assay type: toxicity, cell-based
[11] = Volume of distribution in rat at 0.2 mg/kg, iv or 1 mg/kg, po administered as single dose via cassette dosing; assay type: ADME, organism-based; conditions: in vivo
[12] = Clearance in human hepatocytes at 1 uM incubated up to 60 mins by LC-MS/MS method; assay type: ADME, cell-based, Hepatocyte
Escherichia coli = assay: Genotoxicity in Escherichia coli WP2 harboring uvrA deletion mutant after 48 to 72 hrs in absence of liver S9 fraction by Ames test; assay type: toxicity
Rattus norvegicus [13] = assay: Time at which plasma concentration stays above in vitro IC50 for BTK autophosphorylation at Y223 in rat whole blood in Lewis rat collagen-induced arthritis modelt at 0.125 to 2 mg/kg, po bid measured during 12 hrs dosing
[14] = Clearance in human liver microsomes at 1 uM incubated up to 60 mins by LC-MS/MS method; assay type: ADME, microsome
Rattus norvegicus [15] = assay: Antiinflammatory activity in Lewis rat collagen-induced arthritis model assessed as reduction in ankle diameter AUC at 0.125 mg/kg, po administered bid for 16 days relative to control; assay type: functional; conditions: 384 h
Cytochrome P450 1A2 = Cytochrome P450 1A2 (Homo sapiens, UniProt P05177); assay: Inhibition of CYP1A2 (unknown origin); assay type: ADME
Salmonella typhimurium [16] = assay: Genotoxicity in Salmonella typhimurium TA1535 after 48 to 72 hrs in absence of liver S9 fraction by Ames test; assay type: toxicity; conditions: salmonella enterica subsp. enterica serovar typhimurium
EGFR = EGFR (Homo sapiens, UniProt P00533); assay: Inhibition of recombinant human cytoplasmic GST-tagged EGFR expressed in baculovirus at 1 uM by Z'-LYTE assay
ERBB2 = ERBB2 (Homo sapiens, UniProt P04626); assay: Inhibition of recombinant human cytoplasmic His-tagged ERBB2 expressed in baculovirus at 1 uM by Z'-LYTE assay
Rattus norvegicus [17] = assay: Antiinflammatory activity in Lewis rat collagen-induced arthritis model assessed as reduction in ankle pannus at 0.125 to 2 mg/kg, po administered bid for 16 days; assay type: functional, organism-based
Salmonella typhimurium [18] = assay: Genotoxicity in Salmonella typhimurium TA98 after 48 to 72 hrs in presence of liver S9 fraction by Ames test; assay type: toxicity; conditions: salmonella enterica subsp. enterica serovar typhimurium
Rattus norvegicus [19] = assay: Antiinflammatory activity in Lewis rat collagen-induced arthritis model assessed as reduction in bone resorption at 0.125 to 2 mg/kg, po administered bid for 16 days; assay type: functional, organism-based
Cytochrome P450 2D6 = Cytochrome P450 2D6 (Homo sapiens, UniProt P10635); assay: Inhibition of CYP2D6 (unknown origin); assay type: ADME
physchem = conditions: buffer, pH 7.4

Chain of Nav1.5 (Q14524 whole entry): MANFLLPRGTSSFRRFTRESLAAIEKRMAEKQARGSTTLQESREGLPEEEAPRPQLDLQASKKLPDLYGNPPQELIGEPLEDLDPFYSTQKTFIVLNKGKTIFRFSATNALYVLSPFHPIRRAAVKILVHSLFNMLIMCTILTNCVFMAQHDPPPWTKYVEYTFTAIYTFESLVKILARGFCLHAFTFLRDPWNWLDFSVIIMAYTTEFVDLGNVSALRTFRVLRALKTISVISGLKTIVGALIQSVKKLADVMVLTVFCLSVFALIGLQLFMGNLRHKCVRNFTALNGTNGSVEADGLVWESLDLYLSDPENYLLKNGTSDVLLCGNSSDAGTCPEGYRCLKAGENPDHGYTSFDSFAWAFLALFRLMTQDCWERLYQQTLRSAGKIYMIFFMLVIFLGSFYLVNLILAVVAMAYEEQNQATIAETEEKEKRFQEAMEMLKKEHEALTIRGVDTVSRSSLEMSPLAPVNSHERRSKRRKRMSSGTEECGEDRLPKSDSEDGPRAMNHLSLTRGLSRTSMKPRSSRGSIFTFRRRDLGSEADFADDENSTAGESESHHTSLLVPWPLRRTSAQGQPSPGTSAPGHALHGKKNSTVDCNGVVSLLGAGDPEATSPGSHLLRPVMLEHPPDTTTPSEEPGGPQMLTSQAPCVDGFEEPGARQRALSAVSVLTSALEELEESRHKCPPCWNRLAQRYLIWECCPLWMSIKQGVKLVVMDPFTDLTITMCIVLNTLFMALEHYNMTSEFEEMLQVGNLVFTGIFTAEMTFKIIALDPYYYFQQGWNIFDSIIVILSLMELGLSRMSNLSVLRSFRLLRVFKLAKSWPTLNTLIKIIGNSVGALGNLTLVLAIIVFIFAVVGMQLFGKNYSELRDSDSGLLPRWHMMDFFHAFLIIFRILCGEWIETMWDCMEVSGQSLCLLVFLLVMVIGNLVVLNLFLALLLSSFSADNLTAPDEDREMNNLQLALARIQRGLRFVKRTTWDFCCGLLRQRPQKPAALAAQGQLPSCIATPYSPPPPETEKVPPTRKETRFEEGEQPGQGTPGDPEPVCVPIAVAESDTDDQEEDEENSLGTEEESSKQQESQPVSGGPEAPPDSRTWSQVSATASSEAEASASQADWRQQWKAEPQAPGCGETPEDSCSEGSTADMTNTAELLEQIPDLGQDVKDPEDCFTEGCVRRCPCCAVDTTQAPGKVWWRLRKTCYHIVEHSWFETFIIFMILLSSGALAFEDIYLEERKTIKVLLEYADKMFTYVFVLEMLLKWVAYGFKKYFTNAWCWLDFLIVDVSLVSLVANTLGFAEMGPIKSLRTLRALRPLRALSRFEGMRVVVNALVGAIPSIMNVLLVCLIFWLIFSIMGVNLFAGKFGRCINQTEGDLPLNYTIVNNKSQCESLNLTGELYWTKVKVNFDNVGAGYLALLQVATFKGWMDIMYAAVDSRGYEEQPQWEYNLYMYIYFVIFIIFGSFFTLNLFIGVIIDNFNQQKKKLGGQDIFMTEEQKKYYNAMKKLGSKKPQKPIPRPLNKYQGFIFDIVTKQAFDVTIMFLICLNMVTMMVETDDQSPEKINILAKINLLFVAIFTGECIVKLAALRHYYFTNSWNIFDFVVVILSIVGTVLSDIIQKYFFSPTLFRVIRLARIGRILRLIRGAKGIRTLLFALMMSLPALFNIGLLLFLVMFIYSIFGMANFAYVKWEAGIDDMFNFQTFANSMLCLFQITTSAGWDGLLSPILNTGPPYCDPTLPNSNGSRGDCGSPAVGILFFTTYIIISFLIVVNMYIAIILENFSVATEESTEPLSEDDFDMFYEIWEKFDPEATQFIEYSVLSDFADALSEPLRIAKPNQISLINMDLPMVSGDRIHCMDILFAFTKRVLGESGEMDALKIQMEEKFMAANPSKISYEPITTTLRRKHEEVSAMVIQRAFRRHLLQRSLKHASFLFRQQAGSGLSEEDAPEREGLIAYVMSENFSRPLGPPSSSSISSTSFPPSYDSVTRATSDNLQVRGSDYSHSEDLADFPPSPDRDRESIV
Chain of Cytochrome P450 2C9 (P11712 whole entry): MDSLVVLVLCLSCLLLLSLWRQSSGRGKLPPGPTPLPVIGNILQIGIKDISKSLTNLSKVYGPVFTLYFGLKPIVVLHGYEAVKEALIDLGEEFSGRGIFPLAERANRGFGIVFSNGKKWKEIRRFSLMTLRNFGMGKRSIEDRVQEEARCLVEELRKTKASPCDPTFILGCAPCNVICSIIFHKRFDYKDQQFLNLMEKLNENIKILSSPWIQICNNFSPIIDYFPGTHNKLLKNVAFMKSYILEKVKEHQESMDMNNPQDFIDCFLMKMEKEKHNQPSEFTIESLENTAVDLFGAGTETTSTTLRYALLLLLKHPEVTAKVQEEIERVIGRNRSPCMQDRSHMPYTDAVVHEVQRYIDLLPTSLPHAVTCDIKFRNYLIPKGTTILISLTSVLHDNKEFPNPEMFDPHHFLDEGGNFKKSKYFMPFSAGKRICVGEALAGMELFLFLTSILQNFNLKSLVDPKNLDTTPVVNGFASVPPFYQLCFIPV
Chain of EGFR (P00533 whole entry): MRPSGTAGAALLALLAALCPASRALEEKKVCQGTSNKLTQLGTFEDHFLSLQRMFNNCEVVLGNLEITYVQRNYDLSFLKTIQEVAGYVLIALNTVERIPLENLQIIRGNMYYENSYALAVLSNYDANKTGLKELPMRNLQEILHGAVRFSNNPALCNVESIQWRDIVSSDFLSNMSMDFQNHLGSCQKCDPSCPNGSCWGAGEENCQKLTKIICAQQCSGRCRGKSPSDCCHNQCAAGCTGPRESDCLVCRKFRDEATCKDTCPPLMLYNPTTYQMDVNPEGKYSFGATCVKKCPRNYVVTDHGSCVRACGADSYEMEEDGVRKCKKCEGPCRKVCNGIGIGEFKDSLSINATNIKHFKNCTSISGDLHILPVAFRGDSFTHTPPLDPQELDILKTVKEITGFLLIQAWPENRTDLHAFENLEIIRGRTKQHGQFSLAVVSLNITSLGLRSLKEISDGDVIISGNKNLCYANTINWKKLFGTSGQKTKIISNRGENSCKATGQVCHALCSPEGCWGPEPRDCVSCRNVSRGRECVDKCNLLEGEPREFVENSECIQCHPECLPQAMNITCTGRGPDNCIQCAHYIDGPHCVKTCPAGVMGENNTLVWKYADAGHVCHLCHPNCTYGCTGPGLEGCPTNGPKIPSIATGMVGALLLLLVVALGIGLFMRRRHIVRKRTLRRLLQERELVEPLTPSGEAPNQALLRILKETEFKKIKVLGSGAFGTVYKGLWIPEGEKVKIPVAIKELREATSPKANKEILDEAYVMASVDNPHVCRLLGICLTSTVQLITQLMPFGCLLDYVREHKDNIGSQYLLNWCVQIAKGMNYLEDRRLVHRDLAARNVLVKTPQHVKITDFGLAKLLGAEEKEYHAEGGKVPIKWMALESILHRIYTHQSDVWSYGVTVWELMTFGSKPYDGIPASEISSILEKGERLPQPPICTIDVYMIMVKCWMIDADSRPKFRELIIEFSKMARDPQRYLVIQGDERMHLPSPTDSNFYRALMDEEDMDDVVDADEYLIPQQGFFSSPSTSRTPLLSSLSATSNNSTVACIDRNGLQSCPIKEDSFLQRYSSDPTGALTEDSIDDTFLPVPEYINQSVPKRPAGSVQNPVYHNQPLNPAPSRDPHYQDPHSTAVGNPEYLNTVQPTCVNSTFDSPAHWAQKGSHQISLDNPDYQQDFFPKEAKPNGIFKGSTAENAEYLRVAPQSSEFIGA
Chain of BLK (P51451 whole entry): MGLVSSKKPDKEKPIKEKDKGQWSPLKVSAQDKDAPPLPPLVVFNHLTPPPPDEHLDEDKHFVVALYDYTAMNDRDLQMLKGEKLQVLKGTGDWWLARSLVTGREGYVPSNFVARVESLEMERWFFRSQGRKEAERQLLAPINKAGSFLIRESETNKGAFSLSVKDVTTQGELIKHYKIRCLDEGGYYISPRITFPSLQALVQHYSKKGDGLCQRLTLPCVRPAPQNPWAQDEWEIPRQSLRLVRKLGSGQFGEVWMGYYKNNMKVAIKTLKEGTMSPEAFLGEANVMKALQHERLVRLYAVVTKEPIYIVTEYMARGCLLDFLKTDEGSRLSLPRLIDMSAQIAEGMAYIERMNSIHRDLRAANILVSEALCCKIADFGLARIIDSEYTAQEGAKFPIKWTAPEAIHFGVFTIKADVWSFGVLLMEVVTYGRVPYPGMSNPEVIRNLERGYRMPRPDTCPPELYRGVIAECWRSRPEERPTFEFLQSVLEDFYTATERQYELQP
Chain of Cytochrome P450 2D6 (P10635 whole entry): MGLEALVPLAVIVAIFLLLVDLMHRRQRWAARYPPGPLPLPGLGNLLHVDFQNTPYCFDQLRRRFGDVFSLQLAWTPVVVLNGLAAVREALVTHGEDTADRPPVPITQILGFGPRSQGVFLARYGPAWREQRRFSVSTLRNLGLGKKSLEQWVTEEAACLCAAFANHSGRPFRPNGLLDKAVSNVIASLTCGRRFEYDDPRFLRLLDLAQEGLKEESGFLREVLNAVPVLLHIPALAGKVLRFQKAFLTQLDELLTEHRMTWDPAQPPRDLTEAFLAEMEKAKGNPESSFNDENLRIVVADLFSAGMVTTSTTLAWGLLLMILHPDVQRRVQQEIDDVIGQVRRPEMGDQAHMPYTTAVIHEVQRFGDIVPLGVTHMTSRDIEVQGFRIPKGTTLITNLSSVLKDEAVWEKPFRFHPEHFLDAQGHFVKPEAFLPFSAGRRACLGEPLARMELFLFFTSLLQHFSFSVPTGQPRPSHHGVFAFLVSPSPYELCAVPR

C[C@H]1CN(C2COC2)CCN1c1ccc(Nc2cc(-c3ccnc(N4CCn5c(cc6c5CC(C)(C)C6)C4=O)c3CO)cn(C)c2=O)nc1 [FENEBRUTINIB]
inhibition at 10 µM (Nav1.5): 1.9%
Time (Rattus norvegicus [1]): 6 h
inhibition at 1 µM (BLK): 6%
Activity (Salmonella typhimurium [2]): Non-Toxic
inhibition at 1 µM (TEC): 23%
Time (Rattus norvegicus [3]): 12 h
Time (Rattus norvegicus [4]): 12 h
Activity (Salmonella typhimurium [5]): Non-Toxic
Activity (Rattus norvegicus [6]): Active
Time (Rattus norvegicus [7]): 12 h
inhibition in vivo at 4 mg/kg (Rattus norvegicus [8]): 89%
inhibition in vivo at 0.25 mg/kg (Rattus norvegicus [9]): 26%
inhibition in vivo at 1 mg/kg (Rattus norvegicus [10]): 71%
IC50 (Cytochrome P450 2C9): > 5 µM
Activity (PBL): Non-Toxic
Vd [11]: 5.42 L/kg
CLhep predicted at 1 µM [12]: 0.456 L/h/kg
Activity (Escherichia coli): Non-Toxic
Time (Rattus norvegicus [13]): 6 h
CLhep predicted at 1 µM [14]: 0.564 L/h/kg
inhibition in vivo at 0.125 mg/kg (Rattus norvegicus [15]): 50%
IC50 (Cytochrome P450 1A2): > 5 µM
Activity (Salmonella typhimurium [16]): Non-Toxic
inhibition at 1 µM (EGFR): -7%
inhibition at 1 µM (ERBB2): -1%
Activity (Rattus norvegicus [17]): Active
Activity (Salmonella typhimurium [18]): Non-Toxic
Activity (Rattus norvegicus [19]): Active
IC50 (Cytochrome P450 2D6): > 5 µM
logD (physchem): 1.6

Reference: ChEMBL document CHEMBL4020831, “Discovery of GDC-0853: A Potent, Selective, and Noncovalent Bruton's Tyrosine Kinase Inhibitor in Early Clinical Development” (J Med Chem, 2018)
